Reference: ChEMBL document CHEMBL1201862, “PubChem BioAssay data set” (2004)
Calls of active or inactive are those of the source.

How the values were obtained:
[1] = Luminescence Cell-Based Dose Confirmation HTS to Identify Activators of 5'UTR Stem-Loop Driven Alpha-Synuclein mRNA Translation in H4 Neuroglioblastoma Cells. [Related pubchem assays: 1829 (Project Summary), 1814 (Primary HTS)]; type: functional
[2] = Luminescence Cell-Based Dose Response HTS to Identify Activators of Luciferase Translation or Activity in H4 […] Cells. [Related pubchem assays: 1829 (Project Summary), 1814 (Primary HTS)]; type: functional
BJ [3] = assay: cytotoxicity toward BJ-TERT fibroblasts, dose response, cell-based, RAS-independent, luminescence (AID 1933); type: functional; conditions: Homo sapiens
H4 = assay: Luminescence Cell-Based Dose Response HTS to Identify Activators of 5'UTR Stem-Loop Driven Prion Protein mRNA Translation in H4 Neuroglioblastoma Cells. [Related pubchem assays: 1829 (Project Summary), 1814 (Primary HTS)]; type: functional; conditions: Homo sapiens
[4] = molecular target: T1, Voltage-gated N-type calcium channel alpha-1B subunit/Amyloid beta A4 precursor protein-binding family A member 1 (Homo sapiens, UniProt Q00975+Q02410); type: protein assay
[5] = molecular target: T2, Heat shock factor protein 1 (Mus musculus, UniProt P38532); assay: inhibition of MG132-induced HSE-luciferase signal, confirmation, cell-based, NIH3T3, luminescence, dose retest (AID 2382); type: functional;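 further: NIH3T3 fibroblasts with HSF1-driven luciferase reporter stressed by proteasome inhibitor MG132; luminescence from HSF1-driven luciferase expression after 8 hours of MG132 stress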
T2 sequence (P38532 whole entry): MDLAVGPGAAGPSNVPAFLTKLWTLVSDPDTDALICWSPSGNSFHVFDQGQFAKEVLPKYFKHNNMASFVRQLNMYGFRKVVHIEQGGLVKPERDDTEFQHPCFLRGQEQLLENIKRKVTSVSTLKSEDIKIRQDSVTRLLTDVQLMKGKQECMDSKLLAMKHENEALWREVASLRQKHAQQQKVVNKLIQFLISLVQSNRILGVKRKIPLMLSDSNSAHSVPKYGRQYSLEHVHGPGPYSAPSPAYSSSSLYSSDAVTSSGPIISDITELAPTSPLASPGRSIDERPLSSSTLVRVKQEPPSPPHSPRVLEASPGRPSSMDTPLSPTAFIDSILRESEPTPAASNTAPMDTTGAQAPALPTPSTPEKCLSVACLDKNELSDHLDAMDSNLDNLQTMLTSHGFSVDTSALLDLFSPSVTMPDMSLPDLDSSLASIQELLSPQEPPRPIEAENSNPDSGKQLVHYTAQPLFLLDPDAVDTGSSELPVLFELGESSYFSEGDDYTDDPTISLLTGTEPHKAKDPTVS

BJ [6] = assay: cells; type: functional, cell-based; conditions: Homo sapiens
[7] = molecular target: Luciferin 4-monooxygenase (Photinus pyralis, UniProt P08659); assay: firefly luciferase enzyme inhibitors, dose response, biochemical, luminescence (AID 1891)
[8] = Luminescence Cell-Based Dose Confirmation HTS to Identify Inhibitors of Platelet Dense Granule Release. [Related pubchem assays: 1663 (Primary HTS), 1678 (Summary of Project)]; type: functional
[9] = molecular target: T1, Voltage-gated N-type calcium channel alpha-1B subunit/Amyloid beta A4 precursor protein-binding family A member 1; type: protein assay; remark: listed apart in the source
[10] = molecular target: T3, Kappa-type opioid receptor (Homo sapiens, UniProt P41145); type: functional
Beta-galactosidase = Beta-galactosidase (Escherichia coli, UniProt Q8VNN2); type: functional
[11] = molecular target: T4, Sphingosine 1-phosphate receptor 4 (Homo sapiens, UniProt O95977); assay: Fluorescence dose response cell-based high throughput screening assay for antagonists of the Sphingosine 1-Phosphate Receptor 4 (S1P4). [Related pubchem assays: 1524 (Confirmation in triplicates.), 1510 (Primary screen.)]; type: functional
T4 sequence (O95977 whole entry): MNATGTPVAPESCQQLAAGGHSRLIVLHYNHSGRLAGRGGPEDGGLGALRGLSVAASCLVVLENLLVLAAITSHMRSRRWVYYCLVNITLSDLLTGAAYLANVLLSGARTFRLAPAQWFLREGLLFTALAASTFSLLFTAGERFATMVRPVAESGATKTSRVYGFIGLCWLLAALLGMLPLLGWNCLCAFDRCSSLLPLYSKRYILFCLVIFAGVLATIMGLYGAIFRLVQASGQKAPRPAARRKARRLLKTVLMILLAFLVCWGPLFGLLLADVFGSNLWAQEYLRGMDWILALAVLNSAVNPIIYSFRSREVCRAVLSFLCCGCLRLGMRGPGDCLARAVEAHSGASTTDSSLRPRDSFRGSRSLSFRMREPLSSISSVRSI

BJ [12] = assay: cytotoxicity toward BJ-TERT-LT-ST fibroblasts, dose response, cell-based, RAS-independent, luminescence (AID 1935); type: functional; conditions: Homo sapiens;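 further: BJ fibroblasts immortalized with TERT plus LT and ST oncogenes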
[13] = molecular target: T3, Kappa-type opioid receptor; type: functional; remark: listed apart in the source
[14] = cytotoxicity toward DRD oncogenic fibroblasts, dose response, cell-based, non-viral oncogenic, luminescence (AID 1934); type: functional; conditions: Homo sapiens
[15] = molecular target: Sphingosine 1-phosphate receptor 1 (Homo sapiens, UniProt P21453); type: functional;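 further: Tango beta-arrestin reporter U2OS cells stimulated with S1P near its EC80; inhibitor potency meaning antagonism of receptor activation by the natural agonist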
[16] = molecular target: Induced myeloid leukemia cell differentiation protein Mcl-1 (Homo sapiens, UniProt Q07820); type: functional
[17] = molecular target: Glucose-6-phosphate 1-dehydrogenase (Homo sapiens, UniProt P11413); assay: human G6PD enzyme inhibitors, dose response, selectivity assay for P. falciparum G6PD inhibitor project, biochemical, fluorescence (AID 504792); type: functional
[18] = molecular target: DNA dC->dU-editing enzyme APOBEC-3G (Homo sapiens, UniProt Q9HC16); assay: Dose Response confirmation of small molecule APOBEC3G DNA Deaminase Inhibitors via a fluorescence-based single-stranded DNA deaminase assay. [Related pubchem assays (depositor defined):AID493012, AID493028]; type: functional
[19] = cytotoxicity in HEK-293T cells, dose response, cytotoxicity control for TCR NF-kB inhibitor project, luminescence, T-cell screen hits (AID 489026); type: functional, cell-based;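 further: cells exposed to compound about 14 hours before the viability readout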
CHO = assay: cytotoxicity in TLR9-MyD88 CHO cells, dose response, cytotoxicity control for TLR9-MyD88 binding inhibitor project, cell-based, luminescence (AID 588339); type: functional, hamster; conditions: Cricetulus griseus;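 further: CHO cells stably coexpressing TLR9 and MyD88 fusions from primary screen; compound exposure lasted 48 hours before viability readout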
[20] = molecular target: Heat shock protein HSP 90-alpha (Homo sapiens, UniProt P07900); type: functional, organism-based
Vero = Vero cell cytotoxicity, cytotoxicity control for flavivirus capping enzyme inhibitors (AID 588742); type: functional; conditions: Chlorocebus sabaeus
BJ [21] = assay: cytotoxicity toward Ras-transformed BJeLR fibroblasts, dose response, cell-based, alamar blue fluorescence, cherrypicked samples (AID 2631); type: functional; conditions: Homo sapiens;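 further: confirmatory dose-response assay in RAS-dependent BJ fibroblasts engineered with TERT, LT and ST, with cytotoxicity read by fluorescence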
Beta Lactamase = Beta Lactamase (Pseudomonas aeruginosa, UniProt Q932Y6); assay: beta-lactamase reporter inhibitor potency, dose response, artefact control for TLR9-MyD88 binding inhibitor project, BLA reporter cells, FRET fluorescence (AID 588341); type: cell-based;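 further: cell based assay in CHO-K1 cells stably expressing beta-lactamase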
Beta-arrestin-1 = Beta-arrestin-1 (Homo sapiens, UniProt P49407); assay: inhibitors of arrestin peptide binding to AP2, dose response, biochemical, cherry pick 1, beta2-adaptin appendage, flow cytometry (AID 588783); type: functional
INS1 = assay: beta cell apoptosis inhibitors, cytokine rescue, dose response, luminescence, retest (AID 449756); type: functional, cell-based; conditions: Rattus norvegicus;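 further: cell death triggered by IL-1 beta plus TNF-alpha plus IFN-gamma mixture; protective hits raise ATP signal compared with cytokine alone wells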
Genome polyprotein = Genome polyprotein (dengue virus type 2, UniProt P29990); assay: Dengue-2 NS5 methyltransferase inhibitors, primary screen, biochemical, confirmation dose response (AID 588689); type: functional
[22] = molecular target: Beta-2 adrenergic receptor (Homo sapiens, UniProt P07550); assay: beta2AR agonists driving receptor internalization, dose response, cell-based, FAP fluorogen, flow cytometry, cherry pick 1 (AID 588763); type: functional
DNA topoisomerase = DNA topoisomerase (Yersinia pestis, UniProt A0A2S9PM60); assay: Y. pestis Topo-I inhibitors, cleavage product readout, dose response, biochemical, cherry-pick (AID 588525)
HEK293 = assay: inhibitors of LMP1-driven NF-kB reporter, dose response, cell-based, HEK293, luciferase, cherry-pick (AID 588343); type: functional; conditions: Homo sapiens
cells = type: functional, cell-based
[23] = molecular target: T5, Nuclear receptor subfamily 0 group B member 1 (Homo sapiens, UniProt P51843); type: functional, cell-based;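 further: HEK293T cells transfected with SF-1 and DAX-1 plus StAR promoter luciferase reporter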
T5 sequence (P51843 whole entry): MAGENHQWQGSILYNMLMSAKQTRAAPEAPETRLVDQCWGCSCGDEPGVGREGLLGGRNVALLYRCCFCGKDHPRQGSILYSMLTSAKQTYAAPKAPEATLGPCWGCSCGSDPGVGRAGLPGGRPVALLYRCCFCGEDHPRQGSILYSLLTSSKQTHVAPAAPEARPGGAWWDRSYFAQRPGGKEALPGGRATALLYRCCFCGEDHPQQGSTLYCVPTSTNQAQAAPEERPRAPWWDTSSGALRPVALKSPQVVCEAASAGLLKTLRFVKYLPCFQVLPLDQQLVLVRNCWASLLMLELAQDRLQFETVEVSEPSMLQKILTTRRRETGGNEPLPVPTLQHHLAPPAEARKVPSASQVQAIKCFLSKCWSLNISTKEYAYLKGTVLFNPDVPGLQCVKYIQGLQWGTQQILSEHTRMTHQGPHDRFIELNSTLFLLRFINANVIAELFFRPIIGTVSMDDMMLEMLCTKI

Escherichia coli = assay: microbe, parasite or virus in culture
[24] = test system: Streptococcus sp. 'group A'; assay: growth inhibition of control SK(-) GAS strain, dose response, counter-screen for streptokinase expression inhibitor project, luminescence, kanamycin, BacTiterGlo, confirmation (AID 1900); type: functional, organism-based
Streptokinase A = molecular target: T6, Streptokinase A (Streptococcus pyogenes serotype M1, UniProt P10520); assay: S. pyogenes streptokinase expression inhibitors, potency, dose response, plasminogen activation absorbance, OD405 (AID 1914); type: functional, Streptococcus pyogenes M1 GAS;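 further: secreted streptokinase activity via plasminogen activation per viability signal from cell pellet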
T6 sequence (P10520 whole entry): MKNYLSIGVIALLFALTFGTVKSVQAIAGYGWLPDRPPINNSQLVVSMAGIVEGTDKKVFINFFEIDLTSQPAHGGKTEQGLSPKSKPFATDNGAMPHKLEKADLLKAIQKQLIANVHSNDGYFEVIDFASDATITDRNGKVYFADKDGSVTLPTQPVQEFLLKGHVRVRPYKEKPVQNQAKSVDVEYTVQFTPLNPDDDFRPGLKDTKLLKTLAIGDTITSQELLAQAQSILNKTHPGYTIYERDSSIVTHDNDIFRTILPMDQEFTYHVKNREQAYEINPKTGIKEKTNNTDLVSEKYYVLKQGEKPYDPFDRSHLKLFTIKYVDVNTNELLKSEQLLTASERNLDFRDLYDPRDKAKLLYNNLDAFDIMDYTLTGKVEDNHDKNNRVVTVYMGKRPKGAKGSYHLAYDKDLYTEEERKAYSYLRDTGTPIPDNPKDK

Streptococcus = assay: Group A Streptococcus viability loss, dose response, counter-screen for streptokinase expression inhibitor project, luminescence, BacTiterGlo (AID 1915); type: functional, organism-based;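 further: potency for reduction of bacterial viability or growth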
A-375 [25] = assay: MITF: Counter assay: A375 proliferation Measured in Cell-Based System Using Plate Reader - 2084-03_Inhibitor_Dose_DryPowder_Activity. [Related pubchem assays (depositor defined):AID488944]; type: functional; conditions: Homo sapiens
A-375 [26] = assay: A375 melanoma cell viability reduction, dose response, counter-screen for MITF modulator project, cherry-pick samples, set 2 (AID 540335); type: functional, cell-based; conditions: Homo sapiens
Candida albicans = assay: growth inhibition of resistant C. albicans, dose response, CaCi-8, fluconazole, Alamar Blue, dry powder (AID 488807); type: functional, organism-based
NIH3T3 = assay: cytotoxicity in NIH-3T3 fibroblasts, dose response, cytotoxicity control for antifungal drug resistance project, cell-based, Alamar Blue, fluconazole, dry powder (AID 488809); type: functional; conditions: Mus musculus
Hexokinase-1 = Hexokinase-1 (Homo sapiens, UniProt P19367); assay: SAR analysis of small molecule inhibitors of hexokinase domain containing I (HKDC1) in the hexokinase 1 selectivity assay. [Related pubchem assays (depositor defined):AID493160, AID493190]; type: functional
Hexokinase HKDC1 = Hexokinase HKDC1 (Homo sapiens, UniProt Q2TB90); assay: SAR analysis of small molecule inhibitors of hexokinase domain containing I (HKDC1). [Related pubchem assays (depositor defined):AID493160, AID493190]; type: functional

T3 sequence (P41145 whole entry): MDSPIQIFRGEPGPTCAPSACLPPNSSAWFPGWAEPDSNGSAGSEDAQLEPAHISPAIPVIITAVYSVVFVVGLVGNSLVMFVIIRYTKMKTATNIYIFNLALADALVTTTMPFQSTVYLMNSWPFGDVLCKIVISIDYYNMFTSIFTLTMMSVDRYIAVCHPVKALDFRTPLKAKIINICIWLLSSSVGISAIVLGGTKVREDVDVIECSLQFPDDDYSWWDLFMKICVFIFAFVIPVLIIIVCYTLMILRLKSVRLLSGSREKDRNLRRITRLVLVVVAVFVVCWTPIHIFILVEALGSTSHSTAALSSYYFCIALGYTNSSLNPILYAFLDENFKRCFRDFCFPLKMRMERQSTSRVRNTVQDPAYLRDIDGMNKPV
T1 sequence (Q00975 whole entry): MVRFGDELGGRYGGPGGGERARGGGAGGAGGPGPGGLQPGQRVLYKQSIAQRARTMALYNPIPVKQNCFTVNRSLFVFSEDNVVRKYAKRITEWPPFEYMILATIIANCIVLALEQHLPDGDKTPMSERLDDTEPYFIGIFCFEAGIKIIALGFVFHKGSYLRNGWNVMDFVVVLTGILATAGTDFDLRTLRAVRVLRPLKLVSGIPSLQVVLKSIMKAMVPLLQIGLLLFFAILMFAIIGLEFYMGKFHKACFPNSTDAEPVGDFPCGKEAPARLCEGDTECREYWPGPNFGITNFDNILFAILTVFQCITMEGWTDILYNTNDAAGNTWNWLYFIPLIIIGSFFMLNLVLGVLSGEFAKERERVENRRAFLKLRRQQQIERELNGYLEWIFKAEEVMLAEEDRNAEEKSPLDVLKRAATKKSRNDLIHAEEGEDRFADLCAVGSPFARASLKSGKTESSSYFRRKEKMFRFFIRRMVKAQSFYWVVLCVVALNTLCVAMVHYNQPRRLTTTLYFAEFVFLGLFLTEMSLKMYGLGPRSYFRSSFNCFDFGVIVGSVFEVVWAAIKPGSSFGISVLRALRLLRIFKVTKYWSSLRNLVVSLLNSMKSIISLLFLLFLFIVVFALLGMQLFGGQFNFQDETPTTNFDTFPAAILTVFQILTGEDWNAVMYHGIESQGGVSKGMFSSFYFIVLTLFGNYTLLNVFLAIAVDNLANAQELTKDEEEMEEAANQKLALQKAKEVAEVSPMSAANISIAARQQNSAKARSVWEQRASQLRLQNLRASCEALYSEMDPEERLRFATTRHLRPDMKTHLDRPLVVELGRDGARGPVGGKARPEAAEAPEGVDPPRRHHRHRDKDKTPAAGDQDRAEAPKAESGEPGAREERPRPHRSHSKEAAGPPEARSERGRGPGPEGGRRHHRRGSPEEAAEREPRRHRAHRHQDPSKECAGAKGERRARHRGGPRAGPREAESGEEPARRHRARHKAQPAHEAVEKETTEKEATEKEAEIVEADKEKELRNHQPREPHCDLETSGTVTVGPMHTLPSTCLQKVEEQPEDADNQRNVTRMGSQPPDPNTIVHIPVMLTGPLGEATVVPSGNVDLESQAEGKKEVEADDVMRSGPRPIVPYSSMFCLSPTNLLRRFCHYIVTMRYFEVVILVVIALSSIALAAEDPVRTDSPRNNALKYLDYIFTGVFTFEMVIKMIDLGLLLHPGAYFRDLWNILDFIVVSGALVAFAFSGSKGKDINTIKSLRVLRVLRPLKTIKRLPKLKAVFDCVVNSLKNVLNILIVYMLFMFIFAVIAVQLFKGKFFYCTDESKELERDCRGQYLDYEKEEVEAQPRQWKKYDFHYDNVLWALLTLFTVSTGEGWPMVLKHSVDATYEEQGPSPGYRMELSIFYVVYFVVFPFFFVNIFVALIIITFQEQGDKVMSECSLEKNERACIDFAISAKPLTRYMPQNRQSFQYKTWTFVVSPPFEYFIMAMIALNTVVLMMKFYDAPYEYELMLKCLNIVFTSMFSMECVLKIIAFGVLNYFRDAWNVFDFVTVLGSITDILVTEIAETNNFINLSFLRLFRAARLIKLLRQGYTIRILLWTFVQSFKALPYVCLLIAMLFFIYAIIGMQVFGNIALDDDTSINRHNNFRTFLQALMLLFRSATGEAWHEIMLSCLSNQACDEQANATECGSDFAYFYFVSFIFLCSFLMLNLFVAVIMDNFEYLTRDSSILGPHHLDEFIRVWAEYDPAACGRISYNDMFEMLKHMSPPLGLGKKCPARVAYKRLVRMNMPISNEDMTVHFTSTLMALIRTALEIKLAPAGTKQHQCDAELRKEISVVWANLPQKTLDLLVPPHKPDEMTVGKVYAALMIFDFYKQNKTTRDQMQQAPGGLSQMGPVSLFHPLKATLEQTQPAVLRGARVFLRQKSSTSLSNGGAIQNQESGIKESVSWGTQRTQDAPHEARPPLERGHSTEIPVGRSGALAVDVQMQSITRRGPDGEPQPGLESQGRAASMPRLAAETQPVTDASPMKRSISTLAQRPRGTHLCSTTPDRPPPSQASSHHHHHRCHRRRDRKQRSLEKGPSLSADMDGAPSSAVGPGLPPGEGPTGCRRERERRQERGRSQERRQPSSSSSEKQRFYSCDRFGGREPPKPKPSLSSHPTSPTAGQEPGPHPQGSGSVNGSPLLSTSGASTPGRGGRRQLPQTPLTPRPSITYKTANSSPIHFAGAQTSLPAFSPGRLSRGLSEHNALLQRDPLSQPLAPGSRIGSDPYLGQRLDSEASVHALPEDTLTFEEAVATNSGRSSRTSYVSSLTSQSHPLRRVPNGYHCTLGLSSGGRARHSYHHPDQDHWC
T1 sequence (Q02410 whole entry): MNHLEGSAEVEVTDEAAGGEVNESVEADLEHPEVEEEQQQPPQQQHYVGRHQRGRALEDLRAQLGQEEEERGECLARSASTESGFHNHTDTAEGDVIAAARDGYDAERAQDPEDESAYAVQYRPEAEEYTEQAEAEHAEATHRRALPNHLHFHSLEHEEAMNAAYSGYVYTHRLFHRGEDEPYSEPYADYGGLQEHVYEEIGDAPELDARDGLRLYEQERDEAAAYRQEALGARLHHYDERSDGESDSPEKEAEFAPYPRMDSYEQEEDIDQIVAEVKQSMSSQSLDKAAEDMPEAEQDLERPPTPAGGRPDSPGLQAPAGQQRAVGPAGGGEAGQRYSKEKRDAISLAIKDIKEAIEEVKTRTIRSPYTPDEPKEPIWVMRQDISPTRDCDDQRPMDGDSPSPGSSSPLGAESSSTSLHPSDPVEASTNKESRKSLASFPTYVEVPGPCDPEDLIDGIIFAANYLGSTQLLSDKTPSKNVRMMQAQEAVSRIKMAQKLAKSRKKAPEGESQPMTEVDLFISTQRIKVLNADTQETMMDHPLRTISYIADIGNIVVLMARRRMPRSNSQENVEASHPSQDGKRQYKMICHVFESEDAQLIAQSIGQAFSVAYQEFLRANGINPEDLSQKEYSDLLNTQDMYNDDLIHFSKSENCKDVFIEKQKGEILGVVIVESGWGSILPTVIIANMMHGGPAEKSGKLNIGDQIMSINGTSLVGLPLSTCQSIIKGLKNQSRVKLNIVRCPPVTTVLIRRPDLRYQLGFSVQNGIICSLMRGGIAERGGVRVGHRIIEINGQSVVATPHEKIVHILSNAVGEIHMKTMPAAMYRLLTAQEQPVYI
Sphingosine 1-phosphate receptor 1, sequence (P21453 whole entry): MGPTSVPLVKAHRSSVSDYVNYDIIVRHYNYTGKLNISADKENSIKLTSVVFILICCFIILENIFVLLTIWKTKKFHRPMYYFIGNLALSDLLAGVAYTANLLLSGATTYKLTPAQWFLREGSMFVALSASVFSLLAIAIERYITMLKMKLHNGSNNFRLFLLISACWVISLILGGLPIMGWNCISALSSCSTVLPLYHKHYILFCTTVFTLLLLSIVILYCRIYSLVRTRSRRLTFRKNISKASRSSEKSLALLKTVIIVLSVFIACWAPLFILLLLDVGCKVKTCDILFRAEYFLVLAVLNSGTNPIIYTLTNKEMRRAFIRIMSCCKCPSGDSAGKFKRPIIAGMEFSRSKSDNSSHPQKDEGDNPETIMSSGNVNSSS
Beta-arrestin-1, sequence (P49407 whole entry): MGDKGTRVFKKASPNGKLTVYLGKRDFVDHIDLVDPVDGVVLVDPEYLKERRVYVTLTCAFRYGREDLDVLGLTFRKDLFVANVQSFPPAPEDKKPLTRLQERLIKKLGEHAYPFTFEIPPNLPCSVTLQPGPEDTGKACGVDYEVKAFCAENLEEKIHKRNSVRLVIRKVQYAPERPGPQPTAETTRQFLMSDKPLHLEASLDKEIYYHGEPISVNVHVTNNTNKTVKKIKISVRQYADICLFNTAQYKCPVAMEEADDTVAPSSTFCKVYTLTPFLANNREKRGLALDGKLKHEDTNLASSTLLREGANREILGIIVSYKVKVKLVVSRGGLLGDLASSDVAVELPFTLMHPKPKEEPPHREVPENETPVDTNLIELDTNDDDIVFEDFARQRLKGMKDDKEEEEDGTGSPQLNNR
Luciferin 4-monooxygenase, sequence (P08659 whole entry): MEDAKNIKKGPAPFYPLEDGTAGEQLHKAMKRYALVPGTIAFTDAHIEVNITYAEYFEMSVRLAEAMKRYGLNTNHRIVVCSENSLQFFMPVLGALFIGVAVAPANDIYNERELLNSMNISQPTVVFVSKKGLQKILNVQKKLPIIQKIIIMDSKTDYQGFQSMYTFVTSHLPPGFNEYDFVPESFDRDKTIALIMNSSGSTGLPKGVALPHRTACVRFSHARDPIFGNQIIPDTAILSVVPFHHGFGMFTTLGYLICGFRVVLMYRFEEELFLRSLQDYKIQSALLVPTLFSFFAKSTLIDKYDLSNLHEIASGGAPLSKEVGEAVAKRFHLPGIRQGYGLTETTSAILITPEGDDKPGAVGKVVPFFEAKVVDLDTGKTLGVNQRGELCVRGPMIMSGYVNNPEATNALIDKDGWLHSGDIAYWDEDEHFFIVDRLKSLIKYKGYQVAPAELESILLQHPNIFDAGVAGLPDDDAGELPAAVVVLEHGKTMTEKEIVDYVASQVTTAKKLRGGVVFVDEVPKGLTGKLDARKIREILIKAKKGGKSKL

COc1ccc(OC)c2c1C(=O)C(Cl)=C(Cl)C2=O
EC50 [1]: > 120 µM (not active) | EC50 [2]: > 60 µM (not active) | EC50 (BJ [3]): 3.94 µM (inconclusive) | EC50 (H4): > 120 µM (not active) | IC50 [4]: 9.53 µM (active) | EC50 [5]: 4.56 µM (active) | EC50 (BJ [6]): 5.3 µM (active) | EC50 [7]: > 112 µM (not active) | EC50 [8]: 11.7 µM (active) | IC50 [9]: 0.331 µM (active) | IC50 [10]: 11.8 µM (active) | EC50 (Beta-galactosidase): > 31.5 µM (inactive) | IC50 [11]: 2.02 µM (active) | EC50 (BJ [12]): 5.05 µM (inconclusive) | IC50 [13]: > 32 µM | EC50 [14]: 5.7 µM (inconclusive) | IC50 [15]: 16.8 µM (not active) | IC50 [16]: 24.8 µM (active) | IC50 [17]: 27 µM (inactive) | IC50 [18]: 7.17 µM (active) | IC50 [19]: 48.3 µM (inactive) | IC50 (CHO): 0.629 µM (active) | AC50 [20]: 3.03 µM (active) | CC50 (Vero): 14.1 µM (active) | EC50 (BJ [21]): 4.49 µM (active) | IC50 (Beta Lactamase): 6.76 µM (active) | IC50 (Beta-arrestin-1): 1.64 µM (active) | AC50 (INS1): 6.17 µM (active) | IC50 (Genome polyprotein): 5.23 µM (active)

Cc1ccc(CNC(=O)CCCCn2c(=O)[nH]c3ccsc3c2=O)cc1
EC50 [22]: 10.7 µM (inactive)

Cc1ccc2nc(Nc3nc(O)cc(CSc4nnc(C)s4)n3)nc(C)c2c1
AC50 (DNA topoisomerase): 6.04 µM (active)

CN(C)c1cccc(C(=O)N/N=C/c2ccccc2F)c1
AC50 (HEK293): 3.75 µM (active) | IC50 (cells): > 67.6 µM (inactive) | IC50 [23]: > 67.6 µM (inactive) | AC50 (Escherichia coli): 134 µM (active)

Nc1nc2ccccc2n1/N=C/c1ccc(-c2ccccc2)o1
EC50 [1]: 24.4 µM (active) | EC50 [2]: 51.3 µM (active) | EC50 [24]: 5.7 µM (active) | EC50 (Streptokinase A): > 150 µM (not active) | EC50 (Streptococcus): > 150 µM (not active) | AC50 (A-375 [25]): > 35 µM (active) | AC50 (A-375 [26]): > 35 µM (active)

CCN(CC)C(=O)Cn1c2ccccc2c2nc3n(c(=O)c21)CCS3
AC50 (Candida albicans): 6.14 µM (active) | AC50 (NIH3T3): 0.596 µM (active)

COc1cc2c(cc1OC)-c1cc(NC(C)c3ccccc3)nc(=O)n1CC2 (stereo unspecified)
IC50 (Hexokinase-1): > 80 µM (inactive) | IC50 (Hexokinase HKDC1): > 80 µM (inactive)
